Where two headings read alike, the source gives them in different places.
What was measured:
[1] = test system: Na^+ -independent Cl^- /HCO3^- exchanger; assay: Activity of the Na^+ -independent Cl^- /HCO3^- exchanger in ventricular cardiomyocytes isolated from rat heart (acetate method, carboxy-SNARF-1 intracellular pH); format: cell-based
Experimental: Example A: MEASUREMENT OF THE ACTIVITY OF THE Na^+ -INDEPENDENT Cl^- /HCO3^- EXCHANGER IN VENTRICULAR CARDIOMYOCYTES ISOLATED FROM RAT HEART
The study is performed on ventricular cardiomyocytes isolated from rat heart by enzymatic dissociation. The intracellular pH of a single cell is measured by the fluorescent label carboxy-SNARF-1 whose fluorescence depends on its state of protonation (Buckler K. J. et al. Pflugers Archiv, 1990, 417: 234-239). The cells are "charged" beforehand with SNARF-1-AM (esterified and permeating form of the label) and the intracellular fluorescence of SNARF is monitored using an inverted microscope equipped with epifluorescence. The measurements are converted into pH using a calibration file.
The activity of the Na^+ -independent Cl^- /HCO3^- exchanger is studied after activation by induction of an alkaline charge of the cells by the acetate method (Roos A et al. Physiol. Rev., 1981, 61: 296-434). […]
The compounds according to the invention are used at concentrations of 10^-11 to 10^-5 M and their IC50 (50% inhibitory concentration) is calculated for each ion transporter. In parallel, the effects of the molecules on the intracellular intrinsic buffer power and the intracellular resting pH are determined.

[2] = test system: isolated rat hearts; assay: Cardiovascular study: arrhythmias in isolated rat hearts (Langendorff infusion), ischaemia-reinfusion; details: for inhibition at 0.1 µM: Rattus norvegicus, n=6, preliminary
Experimental: Example F: CARDIOVASCULAR STUDY
The compounds are tested at a concentration of 0.1 μM in a solution of DMSO in Krebs buffer (0.01% v/v) on arrhythmias. 6 isolated rat hearts were used for the test compound and 6 for the control. An infusion by the Langendorff method is performed (Rees S. A. and Curtis M.J.J. Card. Pharmacol. 1995, 26: 280-288).

Q: `Cc1cc(C)c(NC(=O)C2(C)CCc3c(C)c(O)c(C)c(C)c3O2)cc1C` (centres unmarked) [Example 14, N-(2,4,5-trimethylphenyl)-(6-hydroxy-3,4-dihydro-2,5,7,8-tetramethyl-2H[1]-benzopyran-2-yl)carboxamide] was tested. Which “selectivity of inhibition of the Na^+ -independent Cl^- /HCO3^- exchanger” value ([1]; Na^+ /H^+ exchange and Na^+ /HCO3^- cotransport also studied (ammonium method)) did it give?
A: selective inhibitor

Q: What about the IC50 ([1]; activation by alkaline charge (acetate method), 10^-11 to 10^-5 M, read-out: IC50 (50% inhibitory concentration), Na^+ -independent Cl^- /HCO3^- exchanger) of the same compound?
A: ~0.1 nM

Q: What about the “activity on the cardiovascular system” value ([2]; 0.1 μM, isolated rat heart) of the same compound?
A: possesses cardioprotective activity

Q: What about the inhibition at 0.1 µM ([2]; in comparison with control hearts, read-out: reduction of the incidence of ventricular fibrillation observed during the ischaemia) of the same compound?
A: 50%

Q: And the inhibition at 0.1 µM ([2]; read-out: reduction of the incidence of ventricular fibrillation observed during reinfusion)?
A: 50%

Source: patent publication US5703118A, “Use of benzopyran derivatives for the treatment of pathologies associated with the NA^+ -independent CI-/HCO3 -exchanger” (Adir et Compagnie, priority 1995, dated 1997)
